Laboratory results taken from ChEMBL document CHEMBL1255486, “Effect of vicriviroc on the QT/corrected QT interval and central nervous system in healthy subjects” (Antimicrob Agents Chemother, 2010).

How the values were obtained:
[1] = AUC (0 to infinity) in healthy human at 250 mg/kg, po administered as single dose after 1 day; format: ADME, organism-based; design: time infinity, dose 250 mg/kg, route oral; conditions: plasma
[2] = Cmax in healthy human at 300 mg/kg, po administered as single dose after 1 day; format: ADME, organism-based; design: dose 300 mg/kg, route oral; conditions: in vivo
[3] = Cmax in healthy human at 30 mg/kg, po after 10 days; format: ADME, organism-based; design: dose 30 mg/kg, route oral; conditions: in vivo
Homo sapiens [4] = experiment: Toxicity in healthy human assessed as back pain at 300 mg/kg, po administered as single dose; format: organism-based; design: dose 300 mg/kg, route oral; conditions: in vivo
Homo sapiens [5] = experiment: Toxicity in healthy human assessed as fatigue at 200 […], po once daily for 7 days; format: organism-based; design: route oral; conditions: in vivo, 168 h
[6] = Cmax in healthy human at 150 […], po after 10 days; format: ADME, organism-based; design: dose 150 mg/kg, route oral; conditions: in vivo
[7] = Tmax in healthy human at 150 […], po once daily for 7 days; format: ADME, organism-based; design: dose 150 mg/kg, route oral; conditions: in vivo
[8] = Cmax in healthy human at 250 mg/kg, po once daily for 7 days; format: ADME, organism-based; design: dose 250 mg/kg, route oral; conditions: in vivo
[9] = Tmax in healthy human at 250 mg/kg, po administered as single dose after 1 day; format: ADME, organism-based; design: dose 250 mg/kg, route oral; conditions: in vivo
Homo sapiens [10] = experiment: Toxicity in healthy human assessed as EEG abnormality at 200 mg/kg, po administered as single dose; format: organism-based; design: dose 200 mg/kg, route oral; conditions: in vivo
Homo sapiens [11] = experiment: Toxicity in healthy human assessed as fatigue at 150 […], po once daily for 7 days; format: organism-based; design: route oral; conditions: in vivo, 168 h
Homo sapiens [12] = experiment: Toxicity in healthy human assessed as nausea at 200 […], po once daily for 7 days; format: organism-based; design: route oral; conditions: in vivo, 168 h
[13] = AUC (0 to 24 hrs) in healthy human at 150 […], po after 10 days; format: ADME, organism-based; design: time < 24 hr, dose 150 mg/kg, route oral; conditions: plasma
[14] = Tmax in healthy human at 30 mg/kg, po after 10 days; format: ADME, organism-based; design: dose 30 mg/kg, route oral; conditions: in vivo
Homo sapiens [15] = experiment: Toxicity in healthy human assessed as nausea at 250 […], po administered as single dose; format: organism-based; design: route oral; conditions: in vivo
Homo sapiens [16] = experiment: Toxicity in healthy human assessed as headache at 250 […], po administered as single dose; format: organism-based; design: route oral; conditions: in vivo
[17] = Cmax in healthy human at 250 mg/kg, po administered as single dose after 1 day; format: ADME, organism-based; design: dose 250 mg/kg, route oral; conditions: in vivo
Homo sapiens [18] = experiment: Toxicity in healthy human assessed as back pain at 250 mg/kg, po once daily for 7 days; format: organism-based; design: dose 250 mg/kg, route oral; conditions: in vivo, 168 h
Homo sapiens [19] = experiment: Toxicity in healthy human assessed as increase in blood […] at 250 […], po once daily for 7 days; format: organism-based; design: route oral; conditions: in vivo, 168 h
Homo sapiens [20] = experiment: Toxicity in healthy human assessed as fatigue at 200 […], po administered as single dose; format: organism-based; design: route oral; conditions: in vivo
Homo sapiens [21] = experiment: Toxicity in healthy human assessed as pollakiuria at 150 […], po once daily for 7 days; format: organism-based; design: route oral; conditions: in vivo, 168 h
[22] = Cmax in healthy human at 150 […], po once daily for 7 days measured after 1 day of last dose; format: ADME, organism-based; design: dose 150 mg/kg, route oral; conditions: in vivo
[23] = Tmax in healthy human at 250 mg/kg, po once daily for 7 days; format: ADME, organism-based; design: dose 250 mg/kg, route oral; conditions: in vivo
Homo sapiens [24] = experiment: Toxicity in healthy human assessed as pollakiuria at 250 […], po administered as single dose; format: organism-based; design: route oral; conditions: in vivo
Homo sapiens [25] = experiment: Toxicity in healthy human assessed as headache at 150 […], po once daily for 7 days; format: organism-based; design: route oral; conditions: in vivo, 168 h
[26] = Cmax in healthy human at 200 mg/kg, po administered as single dose after 1 day; format: ADME, organism-based; design: dose 200 mg/kg, route oral; conditions: in vivo
Homo sapiens [27] = experiment: Toxicity in healthy human assessed as increase in blood […] at 300 […], po once daily for 7 days; format: organism-based; design: route oral; conditions: in vivo, 168 h
[28] = AUC (0 to 24 hrs) in healthy human at 250 mg/kg, po once daily for 7 days; format: ADME, organism-based; design: time < 24 hr, dose 250 mg/kg, route oral; conditions: plasma
Homo sapiens [29] = experiment: Toxicity in healthy human assessed as nausea at 150 […], po once daily for 7 days; format: organism-based; design: route oral; conditions: in vivo, 168 h
Homo sapiens [30] = experiment: Cardiotoxicity in healthy human assessed as change in corrected QT interval at 30 mg/kg, po after 10 days by ECG; format: toxicity, organism-based; design: dose 30 mg/kg, route oral; conditions: in vivo, 240 h
[31] = Tmax in healthy human at 150 […], po once daily for 7 days measured after 1 day of last dose; format: ADME, organism-based; design: dose 150 mg/kg, route oral; conditions: in vivo
Homo sapiens [32] = experiment: Toxicity in healthy human assessed as headache at 200 […], po administered as single dose; format: organism-based; design: route oral; conditions: in vivo
Homo sapiens [33] = experiment: Cardiotoxicity in healthy human assessed as change in corrected QT interval at 150 […], po after 10 days by ECG; format: toxicity, organism-based; design: dose 150 mg/kg, route oral; conditions: in vivo, 240 h
[34] = Tmax in healthy human at 150 […], po after 10 days; format: ADME, organism-based; design: dose 150 mg/kg, route oral; conditions: in vivo
[35] = AUC (0 to 24 hrs) in healthy human at 250 mg/kg, po once daily for 7 days measured after 1 day of last dose; format: ADME, organism-based; design: time < 24 hr, dose 250 mg/kg, route oral; conditions: plasma

COC[C@@H](c1ccc(C(F)(F)F)cc1)N1CCN(C2(C)CCN(C(=O)c3c(C)ncnc3C)CC2)C[C@@H]1C [VICRIVIROC]
AUC(0-inf) [1]: 11000 ng·h/mL | Cmax [2]: 1130 ng/mL | Cmax [3]: 403 ng/mL | Activity (Homo sapiens [4]): 20% | Activity (Homo sapiens [5]): 0% | Cmax [6]: 1900 ng/mL | Tmax [7]: 1.5 h | Cmax [8]: 1040 ng/mL | Tmax [9]: 2 h | Activity (Homo sapiens [10]): 0% | Activity (Homo sapiens [11]): 50% | Activity (Homo sapiens [12]): 13% | AUC at 24 h [13]: 32200 ng·h/mL | Tmax [14]: 2 h | Activity (Homo sapiens [15]): 0% | Activity (Homo sapiens [16]): 38% | Cmax [17]: 984 ng/mL | Activity (Homo sapiens [18]): 20% | Activity (Homo sapiens [19]): 10% | Activity (Homo sapiens [20]): 0% | Activity (Homo sapiens [21]): 38% | Cmax [22]: 474 ng/mL | Tmax [23]: 2 h | Activity (Homo sapiens [24]): 0% | Activity (Homo sapiens [25]): 50% | Cmax [26]: 731 ng/mL | Activity (Homo sapiens [27]): 10% | AUC at 24 h [28]: 8750 ng·h/mL | Activity (Homo sapiens [29]): 17% | Activity (Homo sapiens [30]): Non-toxic | Tmax [31]: 1.75 h | Activity (Homo sapiens [32]): 0% | Activity (Homo sapiens [33]): Non-toxic | Tmax [34]: 1.5 h | AUC at 24 h [35]: 5050 ng·h/mL
